Assay results: PubChem BioAssay (NCI)
Several values for one entry are separate records, joined by “and”; a condition that tells them apart may be missing. Equal entries are not always repeated.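 Assay format: 96-well plates, 48-hour exposure. At the GI50, growth is halved. TGI: concentration producing complete growth inhibition.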

Columns and labels:
Assay in all cases: NCI tumour cell line growth inhibition, 48 h
A549 NSCLC = test system: A549 NSCLC
HCT-116 colon = test system: HCT-116 colon
HCT-15 colon = test system: HCT-15 colon
NCI-H226 lung = test system: NCI-H226 lung
NCI-H23 lung = test system: NCI-H23 lung
NCI-H460 lung = test system: NCI-H460 lung
RPMI-8226 leukemia = test system: RPMI-8226 leukemia
SK-OV-3 ovarian = test system: SK-OV-3 ovarian
SW-620 colon = test system: SW-620 colon
U251 CNS = test system: U251 CNS

Row | SMILES | GI50 (A549 NSCLC) | GI50 (HCT-116 colon) | TGI (HCT-116 colon) | GI50 (HCT-15 colon) | TGI (HCT-15 colon) | GI50 (NCI-H226 lung) | GI50 (NCI-H23 lung) | TGI (NCI-H23 lung) | GI50 (NCI-H460 lung) | TGI (NCI-H460 lung) | GI50 (RPMI-8226 leukemia) | TGI (RPMI-8226 leukemia) | GI50 (SK-OV-3 ovarian) | TGI (SK-OV-3 ovarian) | GI50 (SW-620 colon) | TGI (SW-620 colon) | GI50 (U251 CNS) | TGI (U251 CNS) | TGI (A549 NSCLC) | TGI (NCI-H226 lung)
1 | Cn1c(=O)n(-c2ccc(C(C)(C)C#N)cc2)c2c3cc(-c4cnc5ccccc5c4)ccc3ncc21 | 0.0102 µM and 0.00594 µM and < 0.01 µM | 0.0312 µM and 0.00938 µM and 0.0298 µM | > 100 µM | < 0.01 µM and 0.00522 µM | > 100 µM | < 0.001 µM | 0.0169 µM and 0.00838 µM and < 0.0127 µM | 15.9 µM and > 10 µM and > 100 µM | < 0.01 µM and 0.00581 µM | > 100 µM | < 0.0116 µM and 0.00603 µM and < 0.0114 µM | 0.385 µM and 3.13 µM and 1.24 µM | < 0.01 µM and 0.00494 µM | 0.0442 µM and 0.0549 µM and 0.0293 µM | 0.0163 µM and 0.00734 µM and < 0.0116 µM | > 100 µM | < 0.0117 µM and 0.00599 µM and < 0.01 µM | 10.4 µM and > 10 µM and > 100 µM | – | –
2 | CC(C)(C)n1cc(-c2ccnc(NCCNS(=O)(=O)c3ccc(Br)cc3)c2)c(-c2cccc(O)c2)n1 | 2.19 µM | 1.44 µM | 2.86 µM | 1.35 µM | 2.93 µM | 2.07 µM | 1.85 µM | 3.97 µM | 1.93 µM | 3.71 µM | 1.6 µM | 5 µM | 2.29 µM | 6.1 µM | 1.72 µM | 3.46 µM | 1.53 µM | 3.29 µM | 6.5 µM | 5.32 µM
3 | Cc1c(C(C)C)cc(OCCO)cc1C(C)C | – | – | > 100 µM | – | > 100 µM | – | – | > 100 µM | – | > 100 µM | – | 74.3 µM | – | > 100 µM | – | > 100 µM | – | > 100 µM | > 100 µM | > 100 µM
4 | Oc1cccc(-c2nc3ccccc3s2)c1 | – | – | > 100 µM | – | > 100 µM | – | – | 69.6 µM | – | > 100 µM | – | > 100 µM | – | > 100 µM | – | > 100 µM | – | > 100 µM | > 100 µM | 73 µM
5 | COc1cc(C(c2cc3c(cc2O)OCO3)N2CCCC2)cc(OC)c1OC (stereo not drawn) | – | – | 29.8 µM | – | 29.2 µM | – | – | 33.1 µM | – | – | – | 41.5 µM | – | > 100 µM | – | > 100 µM | – | 37.8 µM | 48.9 µM | 33.8 µM
6 | CC1Cc2c(N(C)C)ncnc2N(C)c2ccc(Cl)cc21 (stereo not drawn) | 10.7 µM | 3.48 µM | 23.6 µM | 2.83 µM | 85.9 µM | 11 µM | 5.74 µM | > 100 µM | 3.86 µM | 46.6 µM | 3.53 µM | 17.3 µM | 4.93 µM | 72.1 µM | 3.35 µM | > 100 µM | 4.99 µM | 29.1 µM | > 100 µM | 57.8 µM
7 | COC(=O)c1c(C)oc2ccc(OC(C)=O)cc12 | – | – | > 100 µM | – | > 100 µM | – | – | > 100 µM | – | > 100 µM | – | > 100 µM | – | > 100 µM | – | > 100 µM | – | > 100 µM | > 100 µM | > 100 µM
8 | O=C(CCCCCCCCCCc1ccccc1)c1c(O)cccc1O | – | – | 48.3 µM | – | 38.7 µM | – | – | 35.9 µM | – | 39.6 µM | – | > 100 µM | – | > 100 µM | – | 34.7 µM | – | 38.1 µM | 76.1 µM | 41.8 µM
9 | COc1ccc2cccc(C(=N)c3ccc(C)c4c3CCC4)c2c1 | – | – | 15.9 µM | – | 20.6 µM | – | – | 19.6 µM | – | 16.7 µM | – | – | – | 29.9 µM | – | 18.7 µM | – | 21.4 µM | 26.8 µM | 26.9 µM
10 | CC(C)OP(=O)(CP(=O)(OC(C)C)OC(C)C)OC(C)C.[CH3][Sn]([Br])([Br])[Br] | > 100 µM | – | – | > 100 µM | > 100 µM | > 100 µM | > 100 µM | > 100 µM | > 100 µM | > 100 µM | > 100 µM | > 100 µM | > 100 µM | > 100 µM | > 100 µM | > 100 µM | > 100 µM | > 100 µM | > 100 µM | > 100 µM
11 | COc1ccc([Se]c2ccc(OC)cc2OC)c(OC)c1 | – | – | 46.5 µM | – | – | – | – | > 100 µM | – | > 100 µM | – | > 100 µM | – | 92.1 µM | – | > 100 µM | – | > 100 µM | > 100 µM | 83.3 µM
12 | CCCC/C(=N\N=C(N)N)c1ccc(F)cc1 | 4.66 µM | 3.51 µM | 14.6 µM | 2.49 µM | 14.2 µM | 2.78 µM | 3.34 µM | 17.1 µM | 3.9 µM | 14.7 µM | 2.67 µM | 17.4 µM | 2.61 µM | 11 µM | – | – | 2.36 µM | 10.2 µM | 16.7 µM | 13.3 µM
13 | O=C1C=C(Nc2cccc(Br)c2)c2ccccc2C1=O | 1.54 µM | 10.6 µM | 44.5 µM | 1.33 µM | > 100 µM | 21.7 µM | – | – | 0.402 µM | 25.7 µM | 22.2 µM | > 100 µM | 6.42 µM | 30 µM | 0.482 µM | > 100 µM | 2.74 µM | 22.1 µM | 12.3 µM | 99.4 µM
14 | CN1CCCC1c1cccnc1.O=C(O)c1ccccc1O.O=C([O-])c1ccccc1[OH2+].O=C([O-])c1ccccc1[OH2+].O=C([O-])c1ccccc1[OH2+].[Mn+2] (stereo not drawn) | > 100 µM | > 100 µM | > 100 µM | > 100 µM | > 100 µM | > 100 µM | > 100 µM | > 100 µM | – | – | 92.7 µM | > 100 µM | > 100 µM | > 100 µM | 42.4 µM | > 100 µM | > 100 µM | > 100 µM | > 100 µM | > 100 µM
15 | COC(=O)c1cc(Nc2ccc(O)c3c2C(=O)c2c([N+](=O)[O-])ccc(O)c2C3=O)cc(C(=O)OC)c1 | 1.74 µM | 4.17 µM | > 100 µM | 2.77 µM | > 100 µM | 20.1 µM | – | – | 3.32 µM | 18.9 µM | 3.84 µM | > 100 µM | > 100 µM | > 100 µM | 3.3 µM | > 100 µM | 25.7 µM | > 100 µM | 4.05 µM | > 100 µM
16 | Cc1ccc([P+](Cc2ccc([N+](=O)[O-])cc2)(c2ccc(C)cc2)c2ccc(C)cc2)cc1 | 14.4 µM | 1.49 µM | 12 µM | 18.2 µM | 46.2 µM | 5.31 µM | – | – | 4.26 µM | 16.8 µM | 1.02 µM | 4.86 µM | 12 µM | 25.2 µM | 3.07 µM | 15.4 µM | 2.56 µM | 12.2 µM | 57 µM | 21.4 µM
